Measurements from patent publication US20170121344A1 (Siga Technologies, Inc., priority 2009, published 2017).
pEC50: −log10 of the molar value. Where two headings read alike, the source gives them in different places.

Tested on: Dengue-2 (Strain New Guinea C)
Test: Viral yield assay against Dengue-2 in Vero cells
Assay type: cell-based, Dengue virus
Settings: Dengue virus, read-out: Activity (EC50 class) against Dengue-2 Virus in Vero cells
Summary of the method: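 Vero cells were infected with dengue virus at an MOI of 0.1, treated with compound or DMSO vehicle, and kept at 37° C. Supernatant virus was harvested 48 hours post infection and titered on Vero cells, with EC50 derived from yield reduction.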

[1] = Vero cells, MOI 0.1, harvested 48 hours post infection

Row | Compound | pEC50 [1] | pEC50 (Vero, 48 h)
1 | CCCCNC(=O)c1sc2nc3c(cc2c1NC(C)=O)COC(C)(C)C3 [Compound 237, 3-Acetylamino-7,7-dimethyl-7,8-dihydro-5H-pyrano[4,3-b]thieno[3,2-e]pyridine-2-carboxylic acid butylamide] | < 4.60 | –
2 | COc1ccc(-c2cc(-c3cccs3)nc3sc(C(N)=O)c(N)c23)cc1 [Compound 238, 3-Amino-4-(4-methoxy-phenyl)-6-thiophen-2-yl-thieno[2,3-b]pyridine-2-carboxylic acid amide] | < 4.60 | –
3 | COCc1cc(C)nc2sc(C(=O)Nc3ccc(C(=O)OC)cc3)c(N)c12 [Compound 239, 4-[(3-Amino-4-methoxymethyl-6-methyl-thieno[2,3-b]pyridine-2-carbonyl)-amino]-benzoic acid methyl ester] | – | < 4.60
4 | CCOC(=O)c1cc(NC(=O)c2sc3nc(C)cc(COC)c3c2N)ccc1Cl [Compound 240, 5-[(3-Amino-4-methoxymethyl-6-methyl-thieno[2,3-b]pyridine-2-carbonyl)-amino]-2-chloro-benzoic acid ethyl ester] | < 4.60 | –
5 | CCOc1ccc(-c2c3c(nc4sc(C(=O)Nc5nccs5)c(N)c24)CCCC3)cc1 [Compound 241, 3-Amino-4-(4-ethoxy-phenyl)-5,6,7,8-tetrahydro-thieno[2,3-b]quinoline-2-carboxylic acid thiazol-2-ylamide] | < 4.60 | –
6 | COCc1cc(C)nc2sc(C(=O)Nc3cc(C)ccc3F)c(N)c12 [Compound 242, 3-Amino-4-methoxymethyl-6-methyl-thieno[2,3-b]pyridine-2-carboxylic acid (2-fluoro-5-methyl-phenyl)-amide] | < 4.60 | –
7 | COCc1cc(C)nc2sc(C(=O)Nc3ccc(N4CCOCC4)cc3)c(N)c12 [Compound 243, 3-Amino-4-methoxymethyl-6-methyl-thieno[2,3-b]pyridine-2-carboxylic acid (4-morpholin-4-yl-phenyl)-amide] | < 4.60 | –
8 | COc1ccc(NC(=O)c2sc3nc(N4CCOCC4)c4c(c3c2N)CC(C)(C)OC4)cc1 [Compound 244, 1-Amino-8,8-dimethyl-5-morpholin-4-yl-8,9-dihydro-6H-7-oxa-3-thia-4-aza-cyclopenta[a]naphthalene-2-carboxylic acid (4-methoxy-phenyl)-amide] | – | < 4.60
9 | CC1(C)Cc2c(c(N3CCOCC3)nc3sc4c(=O)n(-c5ccc(Cl)c(Cl)c5)cnc4c23)CO1 [Compound 245, 9-(3,4-Dichloro-phenyl)-2,2-dimethyl-5-morpholin-4-yl-1,4-dihydro-2H,9H-3-oxa-7-thia-6,9,11-triaza-benzo[c]fluoren-8-one] | < 4.60 | –
10 | CCCCN(CCCC)C(=O)c1sc2nc(N3CCOCC3)c3c(c2c1N)CC(C)(C)OC3 [Compound 246, 1-Amino-8,8-dimethyl-5-morpholin-4-yl-8,9-dihydro-6H-7-oxa-3-thia-4-aza-cyclopenta[a]naphthalene-2-carboxylic acid dibutylamide] | < 4.60 | –
11 | COc1ccccc1NC(=O)c1sc2nc(N3CCOCC3)c3c(c2c1N)CC(C)(C)OC3 [Compound 247, 1-Amino-8,8-dimethyl-5-morpholin-4-yl-8,9-dihydro-6H-7-oxa-3-thia-4-aza-cyclopenta[a]naphthalene-2-carboxylic acid (2-methoxy-phenyl)-amide] | < 4.60 | –
12 | CC1(C)Cc2c(c(N3CCOCC3)nc3sc4c(c23)N2C(=O)CCC2(C)NC4=O)CO1 (centres unmarked) [Compound 248, 2,2,9a-Trimethyl-5-(4-morpholinyl)-1,4,9,9a,10,11-hexahydro-2H-pyrano[4″,3″:4′,5′]pyrido[3′,2′:4, 5]thieno[2,3-e]pyrrolo[1,2-a]pyrimidine-8,12-dione] | < 4.60 | –
13 | COCc1cc(C)nc2sc(C(=O)N3CCc4ccccc43)c(N)c12 [Compound 249, (3-Amino-4-methoxymethyl-6-methyl-thieno[2,3-b]pyridin-2-yl)-(2,3-dihydro-indol-1-yl)-methanone] | < 4.60 | –
14 | COCc1cc(C)nc2sc(C(=O)Nc3ccc4c(c3)OCO4)c(N)c12 [Compound 250, 3-Amino-4-methoxymethyl-6-methyl-thieno[2,3-b]pyridine-2-carboxylic acid benzo[1,3]dioxol-5-ylamide] | < 4.60 | –
15 | CC1(C)Cc2nc3sc4c(=O)n(Cc5ccc(Cl)cc5Cl)cnc4c3cc2CO1 [Compound 252, 2-(2,4-Dichloro-benzyl)-8,8-dimethyl-8,9-dihydro-2H,6H-7-oxa-11-thia-2,4,10-triaza-benzo[b]fluoren-1-one] | < 4.60 | –
16 | CC1(C)Cc2nc3sc(C(=O)NCCCO)c(N)c3cc2CS1 [Compound 253, 3-Amino-7,7-dimethyl-7,8-dihydro-5H-1,6-dithia-9-aza-cyclopenta[b]naphthalene-2-carboxylic acid (3-hydroxy-propyl)-amide] | – | < 4.60
17 | Nc1c(C(=O)Nc2ccccc2C(F)(F)F)sc2nc3c(cc12)CCCC3 [Compound 254, 3-Amino-5,6,7,8-tetrahydro-thieno[2,3-b]quinoline-2-carboxylic acid (2-trifluoromethyl-phenyl)-amide] | < 4.60 | –
18 | Cc1cc(NC(=O)c2sc3nc(C)c(C)c(C)c3c2N)no1 [Compound 255, 3-Amino-4,5,6-trimethyl-thieno[2,3-b]pyridine-2-carboxylic acid (5-methyl-isoxazol-3-yl)-amide] | < 4.60 | –

Row | Compound | pEC50 [1] | pEC50 (Vero, 48 h)
19 | CC(=O)c1cccc(NC(=O)c2sc3nc(C)cc(C)c3c2N)c1 [Compound 256, 3-Amino-4,6-dimethyl-thieno[2,3-b]pyridine-2-carboxylic acid (3-acetyl-phenyl)-amide] | < 4.60 | –
20 | Cc1cc(C)c2c(N)c(C(=O)NCCc3ccccc3)sc2n1 [Compound 257, 3-Amino-4,6-dimethyl-thieno[2,3-b]pyridine-2-carboxylic acid phenethyl-amide] | – | < 4.60
21 | Cc1cc(C)c2c(N)c(C(=O)NCc3ccco3)sc2n1 [Compound 258, 3-Amino-4,6-dimethyl-thieno[2,3-b]pyridine-2-carboxylic acid (furan-2-ylmethyl)-amide] | – | < 4.60
22 | COc1ccc(C)cc1NC(=O)c1sc2nc(C)cc(C)c2c1N [Compound 259, 3-Amino-4,6-dimethyl-thieno[2,3-b]pyridine-2-carboxylic acid (2-methoxy-5-methyl-phenyl)-amide] | < 4.60 | –
23 | Cc1cc(C)c2c(N)c(C(=O)NCc3ccccc3)sc2n1 [Compound 260, 3-Amino-4,6-dimethyl-thieno[2,3-b]pyridine-2-carboxylic acid benzylamide] | – | < 4.60
24 | CCC1(C)Cc2c(c(N3CCOCC3)nc3sc4c(=O)[nH]cnc4c23)CO1 (centres unmarked) [Compound 261, 2-Ethyl-2-methyl-5-morpholin-4-yl-1,4-dihydro-2H,9H-3-oxa-7-thia-6,9,11-triaza-benzo[c]fluoren-8-one] | < 4.60 | –
25 | COc1ccc(CNC(=O)c2sc3nc4c(c(C(F)(F)F)c3c2N)CN(C(C)=O)CC4)cc1 [Compound 262, 6-Acetyl-3-amino-4-trifluoromethyl-5,6,7,8-tetrahydro-thieno[2,3-b][1,6]naphthyridine-2-carboxylic acid 4-methoxy-benzylamide] | – | < 4.60
26 | COC(=O)c1cc(OC)c(OC)cc1NC(=O)c1sc2nc3c(cc2c1N)CN(C)CC3 [Compound 263, 2-[(3-Amino-6-methyl-5,6,7,8-tetrahydro-thieno[2,3-b][1,6]naphthyridine-2-carbonyl)-amino]-4,5-dimethoxy-benzoic acid methyl ester] | < 4.60 | –
27 | Cc1cc(NC(=O)c2sc3nc4c(cc3c2N)CN(C)CC4)on1 [Compound 264, 3-Amino-6-methyl-5,6,7,8-tetrahydro-thieno[2,3-b][1,6]naphthyridine-2-carboxylic acid (3-methyl-isoxazol-5-yl)-amide] | < 4.60 | –
28 | Cc1cc(F)ccc1NC(=O)c1sc2nc3c(cc2c1N)CN(C)CC3 [Compound 265, 3-Amino-6-methyl-5,6,7,8-tetrahydro-thieno[2,3-b][1,6]naphthyridine-2-carboxylic acid (4-fluoro-2-methyl-phenyl)-amide] | < 4.60 | –
29 | COc1ccc(CNC(=O)c2sc3nc4c(cc3c2N)CN(C)CC4)cc1 [Compound 266, 3-Amino-6-methyl-5,6,7,8-tetrahydro-thieno[2,3-b][1,6]naphthyridine-2-carboxylic acid 4-methoxy-benzylamide] | < 4.60 | –
30 | CN1CCc2nc3sc(C(=O)NCCc4ccccc4)c(N)c3cc2C1 [Compound 267, 3-Amino-6-methyl-5,6,7,8-tetrahydro-thieno[2,3-b][1,6]naphthyridine-2-carboxylic acid phenethyl-amide] | < 4.60 | –
31 | CCc1nnc(NC(=O)c2sc3nc4c(cc3c2N)CN(C)CC4)s1 [Compound 268, 3-Amino-6-methyl-5,6,7,8-tetrahydro-thieno[2,3-b][1,6]naphthyridine-2-carboxylic acid (5-ethyl-[1,3,4]thiadiazol-2-yl)-amide] | < 4.60 | –
32 | CN1CCc2nc3sc(C(=O)NCc4ccc5c(c4)OCO5)c(N)c3cc2C1 [Compound 269, 3-Amino-6-methyl-5,6,7,8-tetrahydro-thieno[2,3-b][1,6]naphthyridine-2-carboxylic acid (benzo[1,3]dioxol-5-ylmethyl)-amide] | < 4.60 | –
33 | CC(C)NC(=O)c1sc2nc3c(cc2c1N)CN(C)CC3 [Compound 270, 3-Amino-6-methyl-5,6,7,8-tetrahydro-thieno[2,3-b][1,6]naphthyridine-2-carboxylic acid isopropylamide] | < 4.60 | –
34 | CCN(CC)C(=O)c1sc2nc3c(cc2c1N)CN(C(C)C)CC3 [Compound 271, 3-Amino-6-isopropyl-5,6,7,8-tetrahydro-thieno[2,3-b][1,6]naphthyridine-2-carboxylic acid diethylamide] | – | < 4.60
35 | CCc1nnc(NC(=O)c2sc3nc4c(cc3c2N)CN(C(C)C)CC4)s1 [Compound 272, 3-Amino-6-isopropyl-5,6,7,8-tetrahydro-thieno[2,3-b][1,6]naphthyridine-2-carboxylic acid (5-ethyl-[1,3,4]thiadiazol-2-yl)-amide] | < 4.60 | –
